Data on one molecule can be found in patent publication US6521641B1, “Male anti-fertility agents” (Allergan, Inc., priority 1998, dated 2003).

This data set has as its system Sprague-Dawley rats. As to conditions: for epididymis histology: high dose rats. The method, then:
Ninety-eight male and ninety-eight female Sprague-Dawley (Crl:CD®(SD) IGS BR) Charles River, Hollister, Calif. 95023) rats, approximately 8 to 10 weeks old, were used for the study. The rats were divided into the following groups: non-treated control, vehicle control, 0.005 mg/kg/day, 0.015 mg/kg/day and 0.15 mg/kg/day AGN 194310. AGN 194310 has the following chemical structure: [drawing 18]
The AGN 194310 compound was provided as follows: the compound was dissolved in capric/caprylic triglyceride (CCT) at a variety of doses, either 0.001% (v/v) AGN 194310, 0.003% (v/v) AGN 194310, or 0.01% (v/v) AGN 194310.
One hundred ninety-six animals were distributed into thirteen groups as follows: Groups 1 through 5 were Main Study groups. Groups 6-9 were used for Toxicokinetic studies. Groups 10-13 were Main Study Recovery groups.
The drug was administered using a graduated syringe and a 20×3 inch animal feeding needle. Drug was given to each animal in a single dose per day.
Urine was collected from animals in the Main Study and Recovery groups during week 4 of the treatment period, and from Recovery group animals during week 4 of the recovery period. Urine was analyzed for: blood (hemoglobin and erythrocytes), bilirubin, color, glucose, ketones, leukocytes, microscopic evaluations of any urine sediment, […], pH, protein, specific gravity, transparency, and urobilinogen.
Animals were euthanized by inhalation of carbon dioxide. A complete necropsy was performed on all Main Study and Recovery group animals that died, or were euthanized due to moribund conditions, or were euthanized on scheduled sacrifice.
The following organs were weighed for necroscopized animals: adrenal glands, ovaries, kidneys, pituitary gland, liver, spleen, heart, testes, and brain. In the case of organ pairs, both organs were weighed together.
The following tissues and organs were isolated, trimmed if necessary, and preserved in 10% buffered formalin for histopathological evaluation: adrenal glands, mammary gland (with skin), aorta, ovaries, bone/bone marrow, pancreas, femur, pituitary gland, tibia, prostate gland, knee joint, salivary glands, parotid, brain, sub-maxillary, cervix sciatic nerve, diaphragm, seminal vesicle, epididymides, skeletal muscle (thigh), eyes, spinal chord (thoracic), spleen, esophagus, sternum, stomach, testes, duodenum, thymus, jejunum, thyroid gland with parathyroids, ileum, any tissues with lesion(s), cecum, tongue, colon, trachea, heart, bladder, kidneys, uterus, liver, ureter, lungs, urethra, lymph nodes (vaginal, cervical, mediastinal, mesenteric).
Target tissues and organs from the Vehicle (control) and high-dose groups were imbedded in paraffin, and tissue sections made. The sections were mounted and stained with hematoxylin and eosin using standard histological techniques; such histopathological evaluation was performed using techniques well known in the art.
In the Recovery dosage groups that were so evaluated, the selected tissues were prepared and evaluated as set forth above.

Setting [1] is: male rats of the Recovery group, approximately one month without drug.

SMILES strings stand for the structures. Read-outs that look alike come from different tables or passages of the source.

Turning to `CCc1ccc(C2=CC(C)(C)Sc3ccc(C#Cc4ccc(C(=O)O)cc4)cc32)cc1` [AGN 194310, 4-[[4-(4-ethylphenyl)-2,2-dimethyl-(2H)-thiochromen-6-yl]-ethynyl]-benzoic acid], the “germinal cell layers lining the seminiferous tubules” value (high dose males 0.15 mg/kg/day, usual four or more layers in normal tubules) was “one to two layers of germinal cells”. The epididymis histology result is “absence of stored epididymal sperm” (end of recovery) and “increase in exfoliated cells” (end of treatment). Moreover, the “reversibility of inhibition (focal increase in germ cell layers in individual tubules)” value under setting [1] is on record as “reversibility of such inhibition was also evident”. Besides, the “spermatogenesis (morphology)” value under setting [1] is listed as “continuing cessation of spermatogenesis”. Also, under setting [1], the testicular atrophy entry was “testicular atrophy was evident”. The “spermatozoa counts in urine” value (male rats, oral 0.15 mg/kg/day, Recovery group, end of the recovery period) is recorded as “no spermatozoa counts”. The “testes size at postmortem examination” value (male rats, oral 0.15 mg/kg/day, end of the recovery period) is on record as “apparent reduction of testes size in all five male rats”. Further, the testes weight result runs as follows: (male rats, oral high dose 0.15 mg/kg/day, end of the treatment and recovery periods) “reduction in testes weight”; (male rats, oral, other dosage groups (0.005 and 0.015 mg/kg/day)) “no statistically significant reduction of testes weight”. Moreover, the “spermatogenic arrest (testes histology)” value (male rats, oral intermediate dose 0.015 mg/kg/day, end of treatment) is given as “No such effect” and the “spermatogenic arrest (testes histology)” value (male rats, oral low dose 0.005 mg/kg/day, end of treatment) is “No such effect”. Besides, under “oral high dose 0.15 mg/kg/day, end of treatment”, the “male rats with spermatogenic arrest (testes histology)” value is given as 10/10. Further, the “rats with inflammation or damage to stromal or vascular elements of the testis” value (rat, in vivo) is “None”.
